Test results as given in ChEMBL document CHEMBL1201862, “PubChem BioAssay data set” (2004).
The source made the active and inactive calls.

What was measured:
Protein skinhead-1 = molecular target: T1, Protein skinhead-1 (Caenorhabditis elegans, UniProt P34707); type: functional
T1 sequence (P34707 whole entry): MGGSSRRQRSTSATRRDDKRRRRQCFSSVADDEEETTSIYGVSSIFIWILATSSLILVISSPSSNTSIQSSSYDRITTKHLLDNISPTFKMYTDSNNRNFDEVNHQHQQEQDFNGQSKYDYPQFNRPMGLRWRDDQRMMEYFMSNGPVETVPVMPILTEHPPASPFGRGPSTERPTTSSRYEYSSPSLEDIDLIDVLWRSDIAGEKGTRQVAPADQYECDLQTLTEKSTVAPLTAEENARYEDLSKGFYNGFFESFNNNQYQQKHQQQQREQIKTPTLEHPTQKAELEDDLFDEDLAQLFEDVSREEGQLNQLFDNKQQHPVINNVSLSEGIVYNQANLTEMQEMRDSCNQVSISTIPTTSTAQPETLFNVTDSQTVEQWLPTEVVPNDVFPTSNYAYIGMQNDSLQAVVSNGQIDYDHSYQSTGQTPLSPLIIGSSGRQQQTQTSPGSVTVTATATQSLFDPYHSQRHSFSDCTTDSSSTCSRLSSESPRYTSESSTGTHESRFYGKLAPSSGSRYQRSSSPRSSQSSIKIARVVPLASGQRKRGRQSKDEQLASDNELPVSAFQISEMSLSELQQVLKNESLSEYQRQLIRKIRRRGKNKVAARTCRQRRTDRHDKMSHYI

[1] = A cytotoxicity screen of small molecule inhibitors of the PhoP region in Salmonella typhi identified in the primary screen. [Related pubchem assays: 1850, 1864, 1985 ]; type: functional
[2] = molecular target: T2, Polyadenylate-binding protein 1 (Homo sapiens, UniProt P11940); test: MLLE domain peptide-binding blockers, IC50 – biochemical, fluorescence polarization, FITC-PAM2 peptide, dose response (AID 602259); type: functional; settings: read-out: IC50_Mean
[3] = molecular target: T2, Polyadenylate-binding protein 1; test: MLLE binding blockers, Cy5 peptide tracer – biochemical, fluorescence polarization, Cy5-PAM2 peptide, secondary, miRNA deadenylation inhibitor project, dose response (AID 602260); type: functional; settings: read-out: IC50_Mean
[4] = microbe, parasite or virus in culture; type: functional; settings: Mycobacterium tuberculosis
[5] = test system: Streptococcus sp. 'group A'; test: Streptococcus pyogenes SK(-)GAS viability under kanamycin – luminescence, BacTiterGlo, confirmation, counter-screen for streptokinase expression inhibitor project, dose response (AID 1900); type: functional, organism-based
Streptococcus = test: GAS UMAA2166 growth inhibition – luminescence, BacTiterGlo, counter-screen for streptokinase expression inhibitor project, dose response (AID 1915); type: functional, organism-based;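 note: potency for reduction of bacterial viability or growth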
Streptokinase A = molecular target: T3, Streptokinase A (Streptococcus pyogenes serotype M1, UniProt P10520); test: viability-normalized secreted streptokinase activity reduction – plasminogen activation absorbance, OD405, dose response (AID 1914); type: functional, Streptococcus pyogenes M1 GAS;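 note: secreted streptokinase activity via plasminogen activation per viability signal from cell pellet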
T3 sequence (P10520 whole entry): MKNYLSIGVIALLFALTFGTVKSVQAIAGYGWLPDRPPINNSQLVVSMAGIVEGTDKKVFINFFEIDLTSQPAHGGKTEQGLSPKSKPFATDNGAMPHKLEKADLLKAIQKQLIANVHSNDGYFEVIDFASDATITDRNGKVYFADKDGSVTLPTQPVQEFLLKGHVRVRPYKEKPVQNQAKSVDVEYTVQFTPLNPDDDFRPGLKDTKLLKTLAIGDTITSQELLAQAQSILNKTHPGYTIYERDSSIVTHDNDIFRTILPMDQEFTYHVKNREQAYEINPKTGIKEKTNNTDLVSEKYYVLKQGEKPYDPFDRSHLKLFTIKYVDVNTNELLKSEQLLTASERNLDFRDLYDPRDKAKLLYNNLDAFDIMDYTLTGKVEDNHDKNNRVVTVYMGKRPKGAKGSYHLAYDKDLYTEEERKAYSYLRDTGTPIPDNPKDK

[6] = intracellular Trypanosoma cruzi inhibitors in host cells – cell-based, plate reader, cherry-pick samples, set 3, dose response (AID 651818); type: functional;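 note: compounds incubated with infected cells for about four days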
[7] = reduction of Shn3 3'UTR-driven luciferase in osteoblasts – cell-based, Clone20 osteoblasts, firefly luciferase, cherry-picked, dose response (AID 624132); type: functional;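 note: firefly luciferase luminescence from reporter carrying the Shn3 3'UTR in osteoblasts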
[8] = non-specific 3'UTR reporter inhibition in Clone20-Shn3RL – cell-based, Renilla luciferase, cherry-picked, counter-screen for Shn3 inhibitor project, dose response (AID 624133); type: functional
Paired box protein Pax-8 = Paired box protein Pax-8 (Homo sapiens, UniProt Q06710); test: PAX8 transcriptional activity inhibition in RMG-I – RMG-I cells, luciferase, cherry-pick, dose response (AID 687027); type: functional, cell-based;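 note: luciferase reporter driven by Pax8 target thyroperoxidase promoter measured by SteadyGlo luminescence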
[9] = Luminescence Cell-Based Dose Retest to Confirm Inhibitors of Cancer Stem Cells. [Related pubchem assays (depositor defined):AID2717, AID2721]; type: functional; settings: Homo sapiens
[10] = molecular target: T4, Zinc finger protein mex-5 (Caenorhabditis elegans, UniProt Q9XUB2); test: potency of MEX-5 RNA-binding blockers – biochemical, C. elegans, fluorescence polarization, dose response (AID 1960)
T4 sequence (Q9XUB2 whole entry): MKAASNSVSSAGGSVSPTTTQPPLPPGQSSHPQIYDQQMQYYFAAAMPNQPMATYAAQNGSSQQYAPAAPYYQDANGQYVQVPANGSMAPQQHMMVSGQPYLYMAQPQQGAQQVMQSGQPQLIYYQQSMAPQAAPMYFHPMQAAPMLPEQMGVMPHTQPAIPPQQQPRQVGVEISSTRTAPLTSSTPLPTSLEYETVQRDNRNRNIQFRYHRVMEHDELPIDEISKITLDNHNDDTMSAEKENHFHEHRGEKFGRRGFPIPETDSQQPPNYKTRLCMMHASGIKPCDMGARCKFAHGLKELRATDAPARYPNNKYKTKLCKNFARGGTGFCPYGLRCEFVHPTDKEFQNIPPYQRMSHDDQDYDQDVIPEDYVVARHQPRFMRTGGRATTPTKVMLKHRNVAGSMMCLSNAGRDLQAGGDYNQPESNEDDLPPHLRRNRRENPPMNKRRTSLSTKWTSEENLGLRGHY

[11] = molecular target: T5, RNA-binding protein pos-1 (Caenorhabditis elegans, UniProt G5EF15); test: disruptors of C. elegans POS-1 RNA interaction – biochemical, fluorescence polarization, dose response (AID 1964);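 note: purified POS-1 fused to maltose binding protein made in E. coli; potency of compounds blocking POS-1 binding to fluorescent RNA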
T5 sequence (G5EF15 whole entry): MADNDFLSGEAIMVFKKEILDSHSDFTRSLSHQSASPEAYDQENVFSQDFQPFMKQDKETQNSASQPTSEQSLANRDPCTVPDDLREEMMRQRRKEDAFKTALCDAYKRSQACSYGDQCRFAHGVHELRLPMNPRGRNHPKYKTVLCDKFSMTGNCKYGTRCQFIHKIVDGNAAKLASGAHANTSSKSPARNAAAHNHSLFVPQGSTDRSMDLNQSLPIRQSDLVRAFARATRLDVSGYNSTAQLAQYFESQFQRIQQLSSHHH

cells = type: functional
[12] = Luminescence Cell-Based Dose Response HTS to Identify Activators of Luciferase Translation or Activity in H4 […] Cells. [Related pubchem assays: 1829 (Project Summary), 1814 (Primary HTS)]; type: functional
H4 = test: Luminescence Cell-Based Dose Response HTS to Identify Activators of 5'UTR Stem-Loop Driven Prion Protein mRNA Translation in H4 Neuroglioblastoma Cells. [Related pubchem assays: 1829 (Project Summary), 1814 (Primary HTS)]; type: functional; settings: Homo sapiens
INS1 = test: INS-1E survival protection against cytokine death – cell-based, luminescence, retest, dose response (AID 449756); type: functional; settings: Rattus norvegicus;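 note: cell death triggered by IL-1 beta plus TNF-alpha plus IFN-gamma mixture; protective hits raise ATP signal compared with cytokine alone wells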
[13] = Trypanosoma cruzi growth suppression in host cells – NIH3T3 host cells, beta-gal luminescence, confirmation (AID 2044); type: functional, cell-based;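 note: intracellular parasites grown in NIH/3T3 mouse fibroblasts as host cells; luminescent beta-galactosidase reporter signal from transgenic T. cruzi replicating inside host cells; inhibitors lower the luminescence signal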
[14] = Luminescence Cell-Based Dose Confirmation HTS to Identify Activators of 5'UTR Stem-Loop Driven Alpha-Synuclein mRNA Translation in H4 Neuroglioblastoma Cells. [Related pubchem assays: 1829 (Project Summary), 1814 (Primary HTS)]; type: functional
[15] = NIH3T3 cell viability loss – ATP luminescence, mouse fibroblasts, counter-screen, dose response (AID 2010); type: functional, cell-based;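 note: cells exposed to compound for about 90 hours before reading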

T2 sequence (P11940 whole entry, the tested form may be a part): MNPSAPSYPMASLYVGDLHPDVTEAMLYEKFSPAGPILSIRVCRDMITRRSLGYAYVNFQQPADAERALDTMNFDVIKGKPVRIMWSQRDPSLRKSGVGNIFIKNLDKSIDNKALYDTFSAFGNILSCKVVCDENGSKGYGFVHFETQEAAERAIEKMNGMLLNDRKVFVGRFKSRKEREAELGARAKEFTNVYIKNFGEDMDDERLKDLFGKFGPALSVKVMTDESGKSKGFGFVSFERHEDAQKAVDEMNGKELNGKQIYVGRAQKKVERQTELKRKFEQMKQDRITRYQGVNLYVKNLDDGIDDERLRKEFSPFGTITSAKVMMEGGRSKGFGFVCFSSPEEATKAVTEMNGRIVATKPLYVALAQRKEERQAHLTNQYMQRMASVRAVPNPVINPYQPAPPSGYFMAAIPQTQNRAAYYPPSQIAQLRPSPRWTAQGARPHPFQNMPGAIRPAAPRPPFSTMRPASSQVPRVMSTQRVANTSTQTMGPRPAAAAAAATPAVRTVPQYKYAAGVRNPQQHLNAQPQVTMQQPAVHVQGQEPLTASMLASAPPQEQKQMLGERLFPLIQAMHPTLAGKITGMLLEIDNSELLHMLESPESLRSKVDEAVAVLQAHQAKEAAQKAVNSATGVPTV
Paired box protein Pax-8, sequence (Q06710 whole entry): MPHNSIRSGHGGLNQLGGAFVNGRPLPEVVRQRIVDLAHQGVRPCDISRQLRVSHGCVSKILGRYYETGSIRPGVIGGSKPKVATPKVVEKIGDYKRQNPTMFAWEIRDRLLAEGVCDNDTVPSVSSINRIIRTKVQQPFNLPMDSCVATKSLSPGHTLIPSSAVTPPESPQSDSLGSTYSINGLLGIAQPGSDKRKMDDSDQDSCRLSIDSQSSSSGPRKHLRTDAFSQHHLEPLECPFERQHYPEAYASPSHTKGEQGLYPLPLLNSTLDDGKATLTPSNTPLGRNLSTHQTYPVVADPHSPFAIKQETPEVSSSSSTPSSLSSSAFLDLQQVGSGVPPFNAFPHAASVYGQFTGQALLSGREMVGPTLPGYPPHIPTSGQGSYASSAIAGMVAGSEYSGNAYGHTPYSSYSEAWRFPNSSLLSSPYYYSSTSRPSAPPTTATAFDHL

Brc1ccc(-c2nnc(-c3ccccc3)o2)o1
IC50 (Protein skinhead-1): > 100 µM (inactive)

CC(c1ccccc1)(c1ccccc1)c1ccncc1
EC50 [1]: > 50 µM (active)

O=C(NC(=S)Nc1ncccn1)c1ccccc1Br
IC50 [2]: > 66 µM (inactive)
IC50 [3]: > 66 µM (inactive)

COc1ccccc1C1CC(c2cccc(NS(C)(=O)=O)c2)=NN1S(=O)(=O)c1ccccc1 (centres undefined)
IC50 (Protein skinhead-1): > 100 µM (inactive)

CC(C)Oc1ccc(C(=O)NC2=NCCS2)cc1
IC50 [2]: > 66 µM (inactive)
IC50 [3]: > 66 µM (inactive)

COc1nc(-c2ccccc2)cc(-c2ccc(OC)c(OC)c2)n1
CC50 [4]: > 40 µM (active)

O=C(Nc1ccc(Cl)cc1)NC1CCCCNC1=O (centres undefined)
IC50 (Protein skinhead-1): > 100 µM (inactive)

COc1ccc(-c2ccc(OC)c([C@H]3[C@@H]4C=CCC[C@@]4(C)C(=O)N3Cc3ccccc3)c2)cc1OC
CC50 [4]: > 40 µM (active)

Sc1nc2ccccc2c2nc(-c3ccccc3)nn12
EC50 [5]: 5.84 µM (active)
CC50 [4]: 35.2 µM (active)
EC50 (Streptococcus): > 150 µM (not active)
EC50 (Streptokinase A): > 150 µM (not active)

O=C(N/N=C/c1cc(Cl)cc([N+](=O)[O-])c1O)C1CC1
EC50 [1]: > 50 µM (active)

Cc1ccc(S(=O)(=O)N(C)C[C@@H]2Oc3c(NC(=O)Nc4ccc(C(F)(F)F)cc4)cccc3C(=O)N([C@H](C)CO)C[C@@H]2C)cc1
AC50 [6]: 5.16 µM (active)

C[C@@]12C(=O)N(Cc3ccc(-c4ccccc4)cc3)CC(=O)N1[C@H](/C=C/c1ccccc1)[C@@H]1C(=O)N(c3ccccc3)C(=O)[C@@H]12
IC50 (Protein skinhead-1): > 100 µM (inactive)

CCC(C)(O)C(=O)OC1C(=O)OC2CC3C(C)=CC(=O)C(O)C3(C)C3C4(O)OCC23C1C(C)C4O (centres undefined)
AC50 [7]: 0.866 µM (active)
AC50 [8]: 5.79 µM (active)
AC50 (Paired box protein Pax-8): 0.426 µM (active)

CN1CCN(C2=Cc3ccc(Cl)cc3Sc3ccc(F)cc32)CC1
EC50 [5]: 7.12 µM (active)
CC50 [4]: 33.1 µM (active)
AC50 [9]: 6.81 µM (active)
EC50 (Streptococcus): 7.8 µM (active)

C[C@H]1CN([C@@H](C)CO)C(=O)c2cccc(NC(=O)C3CCCCC3)c2O[C@@H]1CN(C)Cc1ccc(Oc2ccccc2)cc1
AC50 [6]: 4.77 µM (active)

Cc1ccc[n+](-c2[nH]c(=O)sc2C=NNC(=O)c2ccccc2[O-])c1
IC50 [2]: 43.9 µM (inactive)
IC50 [3]: > 66 µM (inactive)
EC50 [10]: 38.5 µM (active)
EC50 [11]: 42.4 µM (active)

C[C@H]1CN([C@@H](C)CO)C(=O)c2cccc(NC(=O)c3cnccn3)c2O[C@@H]1CN(C)Cc1ccc(C(=O)Nc2ccccc2N)cc1
AC50 [6]: 2.99 µM (active)

O=C(CCn1c(=O)c2ccccc2n(CC(=O)NCCC2=CCCCC2)c1=O)NCc1ccco1
IC50 (Protein skinhead-1): > 100 µM (inactive)

C[C@H]1CN([C@@H](C)CO)C(=O)Cc2cc(NC(=O)Nc3ccc(C(F)(F)F)cc3)ccc2O[C@@H]1CN(C)Cc1ccc(-c2ccccc2)cc1
AC50 [6]: 3.1 µM (active)

C[C@H](CO)N1C[C@H](C)[C@@H](CN(C)Cc2ccc(C(=O)Nc3ccccc3N)cc2)Oc2c(NC(=O)c3ccc(-c4nccs4)cc3)cccc2C1=O
AC50 [6]: 2.85 µM (active)

CC1(C)c2ccccc2C(=O)c2ccccc21
IC50 (Protein skinhead-1): 24 µM (active)

Clc1c(-c2ccccc2)nnn1-c1ccccc1
IC50 (Protein skinhead-1): > 100 µM (inactive)

O=[N+]([O-])c1ccc(-c2cnc(NO)nc2)cc1
EC50 [1]: > 50 µM (active)

COC(=O)C(O)(c1ccc(NC(=S)NC(=O)c2ccccc2)cc1)C(F)(F)F (centres undefined)
IC50 (cells): 39.6 µM (active)

Cc1nc(NC(=O)C23CC4CC(CC(C4)C2)C3)sc1Cc1ccc2c(c1)OCO2
EC50 [12]: 6.33 µM (active)
EC50 (H4): 8.65 µM (active)
AC50 (INS1): 14.1 µM (active)
EC50 [13]: 0.844 µM (active)
EC50 [14]: 15.8 µM (active)
EC50 [15]: > 60 µM (not active)

COc1ccc(CNc2[nH]cnc3c4cc(OC)c(OC)cc4nc2-3)cc1
CC50 [4]: > 40 µM (active)

c1ccc(C2=NNC(c3ccccn3)=NN2)nc1
IC50 [2]: > 66 µM (inactive)
IC50 [3]: > 66 µM (inactive)
EC50 [10]: 22.4 µM (active)
EC50 [11]: 25.3 µM (active)

COc1cc(C(=O)NC(=S)Nc2ccc(NC(=O)c3ccco3)cc2)cc(OC)c1OC
EC50 [5]: 14.8 µM (active)
IC50 [2]: > 66 µM (inactive)
EC50 (Streptococcus): 7.42 µM (active)
IC50 [3]: > 66 µM (inactive)

N#C/C(=C(/O)c1ccco1)c1nc2ccccc2s1
EC50 [1]: > 50 µM (active)

NC(=O)c1ccc[n+](CC(=O)c2cccc([N+](=O)[O-])c2)c1
EC50 [1]: > 50 µM (active)

COc1ccc(S(=O)(=O)N2CN3CCN(C3)C2)cc1
EC50 [1]: > 50 µM (active)

Cc1cccc(N2CCN(C(=O)CCN3C(S)=NC(C)(C)CC3C)CC2)c1C (centres undefined)
EC50 [1]: > 50 µM (active)

CC(=O)NCCn1c(C)cc2ccccc21
IC50 (Protein skinhead-1): > 100 µM (inactive)

CCCCCCC#Cc1ccc2c(c1)COc1c3ccccc3nn1-2
AC50 [8]: 7.68 µM (active)

CCOC(=O)c1c(N2C(=O)CC(Sc3ccccc3C(=O)O)C2=O)sc2c1CCCC2 (centres undefined)
IC50 [2]: > 66 µM (inactive)
IC50 [3]: > 66 µM (inactive)

Cc1ccc(NC(S)=NCc2cccs2)cc1
EC50 [1]: > 50 µM (active)

CC1CC(C)CN(C(=O)COC(=O)c2ccc([N+](=O)[O-])o2)C1 (centres undefined)
IC50 (cells): 14.7 µM (active)

CCCN1CCc2nc(S)nc(O)c2C1
IC50 [2]: > 66 µM (inactive)
IC50 [3]: > 66 µM (inactive)
